Source: patent publication US20250163052A1, “cGAS INHIBITORS AND USES THEREOF” (Cornell University, priority 2022, published 2025)

What was measured:
[1] = tested on: IFNB; assay: THP1-Dual cells transfected with DNA, Ifnb expression (Quantiluc); format: cell-based; conditions: Homo sapiens; for inhibition at 10 µM: THP-1, 10 μM; for inhibition at 30 µM: THP-1, 30 μM
Procedure: (§1) Evaluation of active cGAS inhibitors in THP1 cells (Table 3). Cellular activity of all compounds (in Table 3) was determined using THP1-Dual™ cells as described (Lama et. al., 2019). THP1-Dual™ cells (Invivogen) (50000 cells in 100 μl media) were seeded into each well of a 96-well plate and treated with compounds at various dilution for 4 hours. Subsequently, cells were transfected with DNA (2 ug/ml) and lipofectamine and incubate the cells were incubated overnight. Ifnb expression was measured in cell supernatant using Quantiluc, nfkb expression was determined using Quantiblue, and cell viability using Promega® CellTiter-Glo®.

[2] = tested on: THP1 cells; assay: THP1-Dual cells, cell viability (CellTiter-Glo); format: cell-based
Procedure: as §1

[3] = biological target: h-cGAS (Homo sapiens, UniProt Q8N884); assay: Cell-free human cGAS enzyme inhibition assay (ATP depletion, Kinase-Glo Max); format: biochemical; conditions: 3 h; for inhibition at 1 µM: read-out: h-cGAS, conc. 1 μM; for inhibition at 10 µM: read-out: h-cGAS, conc. 10 μM
Procedure: (§2) Cell-free mouse and human cGAS enzyme inhibition assay (Table 2). Activity of all compounds (in Table 1) against m-cGAS (30 nM) and or h-cGAS, (100 nM) was determined by measuring the conversion of ATP and GTP (100 μM each) to cGAMP in the presence of dsDNA (5 ug/mL) in a reaction buffer composed of Tris-HCl (20 mM, pH7.4), NaCl (150 mM), MnCl2 (0.2 mM, h-cGAS) or MgCl2 (5 mM, m-cGAS) and Tween-20 (0.01%), and the remaining ATP concentration using Kinase-Glo®Max Luminescent Kinase Assay (Promega, Madison, WI), as described (Lama, et. al., 2019). Briefly, 10 μl of a master mix of 0.4 mM ATP, 0.4 mM GTP, 0.02 mg/mL dsDNA in the reaction buffer supplemented with 2 mM DTT was added to reaction wells containing TDI-6570 or TDI-8246 (2× of the desired concentration) in the same buffer ([…]) using a Thermo 8-channel Multidrop Combi dispenser. Next, 10 μl of a 4×m-cGAS (0.120 μM) or h-cGAS (0.4 μM) solution in the reaction buffer supplemented with 2 mM DTT was added to appropriate wells. Similar sets of reactions without cGAS or the inhibitor was set by adding the buffer alone. The reactions with the plates sealed were incubated at 37° C. (1 hour for m-cGAS and 3 hours for h-cGAS) and stopped by addition of 40 μl of the Kinase-Glo®Max. The luminescence was recorded in relative light units (RLUs) using a Biotek Synergy H1 Hybrid plate reader (BioTek, Winooski, VT). […] All reactions were run in triplicates and calculated using GraphPad Prism 9. The values represent mean IC50±S.D.

[4] = tested on: NFkB-SEAP; assay: THP1-Dual cells transfected with DNA, nfkb expression (Quantiblue); format: cell-based; conditions: Homo sapiens; for inhibition at 10 µM: THP-1, 10 μM; for inhibition at 30 µM: THP-1, 30 μM
Procedure: as §1

[5] = biological target: m-cGAS (Mus musculus, UniProt Q8C6L5); assay: Cell-free mouse cGAS enzyme inhibition assay (ATP depletion, Kinase-Glo Max); format: biochemical; conditions: 1 h; for inhibition at 1 µM: read-out: m-cGAS, conc. 1 μM; for inhibition at 10 µM: read-out: m-cGAS, conc. 10 μM
Procedure: as §2

Chain of h-cGAS (Q8N884 whole entry): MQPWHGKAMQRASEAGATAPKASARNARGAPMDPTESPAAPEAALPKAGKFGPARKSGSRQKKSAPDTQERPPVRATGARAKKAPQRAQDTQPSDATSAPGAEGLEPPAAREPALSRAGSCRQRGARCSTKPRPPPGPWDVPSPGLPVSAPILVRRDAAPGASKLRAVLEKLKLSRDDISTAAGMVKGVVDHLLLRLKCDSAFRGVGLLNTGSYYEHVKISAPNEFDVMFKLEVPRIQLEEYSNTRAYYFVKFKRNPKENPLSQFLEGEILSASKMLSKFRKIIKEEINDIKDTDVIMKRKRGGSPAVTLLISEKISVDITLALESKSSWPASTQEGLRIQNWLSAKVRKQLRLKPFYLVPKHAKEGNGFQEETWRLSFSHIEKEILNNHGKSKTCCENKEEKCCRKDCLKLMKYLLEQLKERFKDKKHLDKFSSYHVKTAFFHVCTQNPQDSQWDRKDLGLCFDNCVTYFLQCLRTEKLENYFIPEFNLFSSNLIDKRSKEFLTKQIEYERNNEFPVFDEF
Chain of m-cGAS (Q8C6L5 whole entry): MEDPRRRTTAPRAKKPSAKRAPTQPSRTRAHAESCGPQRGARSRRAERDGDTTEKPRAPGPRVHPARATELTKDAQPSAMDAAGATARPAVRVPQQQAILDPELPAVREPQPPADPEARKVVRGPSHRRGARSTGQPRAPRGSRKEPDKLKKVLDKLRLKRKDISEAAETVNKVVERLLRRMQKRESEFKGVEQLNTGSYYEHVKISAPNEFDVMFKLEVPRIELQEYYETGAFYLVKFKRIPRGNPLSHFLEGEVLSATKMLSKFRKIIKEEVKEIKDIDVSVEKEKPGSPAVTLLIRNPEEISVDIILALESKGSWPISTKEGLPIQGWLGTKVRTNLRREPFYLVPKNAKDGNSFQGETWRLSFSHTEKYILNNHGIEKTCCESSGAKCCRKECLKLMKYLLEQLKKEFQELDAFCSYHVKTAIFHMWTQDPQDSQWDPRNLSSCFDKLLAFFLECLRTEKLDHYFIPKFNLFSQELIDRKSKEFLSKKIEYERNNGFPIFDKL

In the case of `Cn1cnc(-c2cc(Cl)c(Cl)c3sc4c(c23)CCN(C(=O)CN)C4)c1` [Compound 93], the inhibition at 10 µM [1] is reported as under 24%, the inhibition at 30 µM [1] is reported as 75 to 100% and the “Cell viability 10 μM” value [2] is reported as “+++ (+, ++, and +++ mean the compound respectively shows 25-49%; 50-74%; or 75-100% viability to cells)”. The “Cell viability 30 μM” value [2] was “− (Cell viability <24%, in THP1 cells is expressed as “−”)”, the inhibition at 1 µM [3] was 0 to 24% and the inhibition at 10 µM [3] was 50 to 74%. For the same compound, the inhibition at 10 µM [4] was under 24%, the inhibition at 30 µM [4] was 50 to 74% and the inhibition at 1 µM [5] was 0 to 24%. It also gave an inhibition at 10 µM [5] of 50 to 74%.

`NCC(=O)N1CCc2oc3c(Cl)c(Cl)cc(-c4cncnc4)c3c2C1` [Compound 32] was tested, and the inhibition at 10 µM [1] was under 24%, the inhibition at 30 µM [1] was under 24% and the “Cell viability 10 μM” value [2] was “+++ (+, ++, and +++ mean the compound respectively shows 25-49%; 50-74%; or 75-100% viability to cells)”. The “Cell viability 30 μM” value [2] was “+++ (+, ++, and +++ mean the compound respectively shows 25-49%; 50-74%; or 75-100% viability to cells)”, the inhibition at 1 µM [3] was 25 to 49% and the inhibition at 10 µM [3] was 50 to 74%. For the same compound, the inhibition at 10 µM [4] was under 24%, the inhibition at 30 µM [4] was under 24% and the inhibition at 1 µM [5] was 50 to 74%. It also gave an inhibition at 10 µM [5] of 75 to 100%.

For `O=C(CO)N1CCc2sc3c(Cl)c(Cl)cc(-c4cn[nH]c4)c3c2C1` [Compound 51], the inhibition at 10 µM [1] was 25 to 49%, the inhibition at 30 µM [1] was 75 to 100% and the “Cell viability 10 μM” value [2] was “+++ (+, ++, and +++ mean the compound respectively shows 25-49%; 50-74%; or 75-100% viability to cells)”. The “Cell viability 30 μM” value [2] was “+++ (+, ++, and +++ mean the compound respectively shows 25-49%; 50-74%; or 75-100% viability to cells)”, the inhibition at 1 µM [3] was 0 to 24% and the inhibition at 10 µM [3] was 25 to 49%. The inhibition at 10 µM [5] was 0 to 24%.

For `CC(C)(N)C(=O)N1CCc2sc3c(Cl)c(Cl)cc(-c4ccc(N)nc4)c3c2C1` [Compound 56], the inhibition at 10 µM [1] was 75 to 100%, the inhibition at 30 µM [1] was 75 to 100% and the “Cell viability 10 μM” value [2] was “+ (+, ++, and +++ mean the compound respectively shows 25-49%; 50-74%; or 75-100% viability to cells)”. For the same compound, the “Cell viability 30 μM” value [2] was “− (Cell viability <24%, in THP1 cells is expressed as “−”)”, the inhibition at 10 µM [3] was 50 to 74% and the inhibition at 10 µM [5] was 0 to 24%.

For `Nc1ccc(-c2cc(Cl)c(Cl)c3sc4c(c23)CN(C(=O)[C@H]2CCCN2)CC4)cn1` [Compound 57], the inhibition at 10 µM [1] was 75 to 100%, the inhibition at 30 µM [1] was 75 to 100% and the “Cell viability 10 μM” value [2] was “− (Cell viability <24%, in THP1 cells is expressed as “−”)”. The “Cell viability 30 μM” value [2] was “− (Cell viability <24%, in THP1 cells is expressed as “−”)”, the inhibition at 10 µM [3] was 50 to 74% and the inhibition at 10 µM [5] was 0 to 24%.

With `O=C(CO)N1CCc2sc3c(Cl)c(Cl)cc(-c4ccco4)c3c2C1` [Compound 52] the inhibition at 10 µM [1] was 25 to 49%, the inhibition at 30 µM [1] was 75 to 100% and the “Cell viability 10 μM” value [2] was “+++ (+, ++, and +++ mean the compound respectively shows 25-49%; 50-74%; or 75-100% viability to cells)”. For the same compound, the “Cell viability 30 μM” value [2] was “+++ (+, ++, and +++ mean the compound respectively shows 25-49%; 50-74%; or 75-100% viability to cells)”, the inhibition at 1 µM [3] was 0 to 24% and the inhibition at 10 µM [3] was 50 to 74%. The inhibition at 10 µM [5] was 0 to 24%.

In the case of `Nc1ccc(-c2cc(Cl)c(Cl)c3oc4c(c23)CN(C(=O)CO)CC4)cn1` [Compound 26], the inhibition at 10 µM [1] is reported as 50 to 74%, the inhibition at 30 µM [1] is reported as 75 to 100% and the “Cell viability 10 μM” value [2] is reported as “+++ (+, ++, and +++ mean the compound respectively shows 25-49%; 50-74%; or 75-100% viability to cells)”. The “Cell viability 30 μM” value [2] was “+++ (+, ++, and +++ mean the compound respectively shows 25-49%; 50-74%; or 75-100% viability to cells)”, the inhibition at 1 µM [3] was 50 to 74% and the inhibition at 10 µM [3] was 75 to 100%. The inhibition at 10 µM [5] was 25 to 49%.
